{"source": "patent US9149038B2", "about": "“4-amino-6-(heterocyclic)picolinates and 6-amino-2-(heterocyclic)pyrimidine-4-carboxylates and their use as herbicides” (Dow AgroSciences LLC, priority 2013, dated 2015)", "key": {"[1]": {"test_system": "Key Broadleaf Weed and Crop Species", "assay": "Post-Emergent Test II: postemergent herbicidal activity, visual rating after 14 d (Table 7)", "format": "in vivo", "settings": "post-emergence, 336 h; for pest or weed control at 35 g/ha: 35 g ai/ha; for pest or weed control at 70 g/ha: 70 g ai/ha; for pest or weed control at 140 g/ha: 140 g ai/ha", "procedure,_shortened": "(§1)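 Post-emergence foliar spray, 187 L/ha, first/second true leaf stage plants in potting mix (pH 6.0-6.8). Rates: top rate and 2-fold serial dilutions to 1/16×. Solvent-blank controls. Readout: visual % kill at 14 d.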"}, "[2]": {"test_system": "Key Grass and Sedge Weeds as well as Grass Crops", "assay": "Post-Emergent Test II: postemergent herbicidal activity, visual rating after 14 d (Table 8)", "format": "in vivo", "settings": "post-emergence, 336 h; for pest or weed control at 35 g/ha: 35 g ai/ha; for pest or weed control at 70 g/ha: 70 g ai/ha; for pest or weed control at 140 g/ha: 140 g ai/ha", "procedure,_shortened": "as §1"}, "[3]": {"settings": "lambsquarters (Chenopodium album), read-out: Visual Growth Reduction (%) 14 Days After Application CHEAL"}, "[4]": {"settings": "oilseed rape, canola (Brassica napus), read-out: Visual Growth Reduction (%) 14 Days After Application BRSNN"}, "[5]": {"settings": "redroot pigweed (Amaranthus retroflexus), read-out: Visual Growth Reduction (%) 14 Days After Application AMARE"}, "[6]": {"settings": "sunflower (Helianthus annuus), read-out: Visual Growth Reduction (%) 14 Days After Application HELAN"}, "[7]": {"settings": "velvetleaf (Abutilon theophrasti), read-out: Visual Growth Reduction (%) 14 Days After Application ABUTH"}, "[8]": {"settings": "wild poinsettia (Euphorbia heterophylla), read-out: Visual Growth Reduction (%) 14 Days After Application EPHHL"}, "[9]": {"settings": "barnyardgrass (Echinochloa crus-galli), read-out: Visual Growth Reduction (%) 14 Days After Application ECHCG"}, "[10]": {"settings": "giant foxtail (Setaria faberi), read-out: Visual Growth Reduction (%) 14 Days After Application SETFA"}, "[11]": {"settings": "maize, corn (Zea mays), read-out: Visual Growth Reduction (%) 14 Days After Application ZEAMX"}, "[12]": {"settings": "rice (Oryza sativa), read-out: Visual Growth Reduction (%) 14 Days After Application ORYSA"}, "[13]": {"settings": "wheat, spring (Triticum aestivum), read-out: Visual Growth Reduction (%) 14 Days After Application TRZAS"}, "[14]": {"settings": "yellow nutsedge (Cyperus esculentus), read-out: Visual Growth Reduction (%) 14 Days After Application CYPES"}}, "note": "Where two headings read alike, the source gives them in different places.", "data": [{"smiles": "COC(=O)c1nc(-c2cc3c(cc2F)OC(F)(F)O3)c(F)c(N)c1F", "note": "[Compound 21]", "values": [{"measurement": "pest or weed control at 35 g/ha", "setting": "[1]; [3]", "result": "0 to 29", "unit": "%"}, {"measurement": "pest or weed control at 70 g/ha", "setting": "[1]; [3]", "result": "0 to 29", "unit": "%"}, {"measurement": "pest or weed control at 140 g/ha", "setting": "[1]; [3]", "result": "0 to 29", "unit": "%"}, {"measurement": "pest or weed control at 35 g/ha", "setting": "[1]; [4]", "result": "0 to 29", "unit": "%"}, {"measurement": "pest or weed control at 70 g/ha", "setting": "[1]; [4]", "result": "0 to 29", "unit": "%"}, {"measurement": "pest or weed control at 140 g/ha", "setting": "[1]; [4]", "result": "0 to 29", "unit": "%"}, {"measurement": "pest or weed control at 35 g/ha", "setting": "[1]; [5]", "result": "0 to 29", "unit": "%"}, {"measurement": "pest or weed control at 70 g/ha", "setting": "[1]; [5]", "result": "0 to 29", "unit": "%"}, {"measurement": "pest or weed control at 140 g/ha", "setting": "[1]; [5]", "result": "0 to 29", "unit": "%"}, {"measurement": "pest or weed control at 35 g/ha", "setting": "[1]; [6]", "result": "45 to 59", "unit": "%"}, {"measurement": "pest or weed control at 70 g/ha", "setting": "[1]; [6]", "result": "45 to 59", "unit": "%"}, {"measurement": "pest or weed control at 140 g/ha", "setting": "[1]; [6]", "result": "60 to 74", "unit": "%"}, {"measurement": "pest or weed control at 35 g/ha", "setting": "[1]; [7]", "result": "0 to 29", "unit": "%"}, {"measurement": "pest or weed control at 70 g/ha", "setting": "[1]; [7]", "result": "0 to 29", "unit": "%"}, {"measurement": "pest or weed control at 140 g/ha", "setting": "[1]; [7]", "result": "0 to 29", "unit": "%"}, {"measurement": "pest or weed control at 35 g/ha", "setting": "[1]; [8]", "result": "0 to 29", "unit": "%"}, {"measurement": "pest or weed control at 70 g/ha", "setting": "[1]; [8]", "result": "0 to 29", "unit": "%"}, {"measurement": "pest or weed control at 140 g/ha", "setting": "[1]; [8]", "result": "0 to 29", "unit": "%"}, {"measurement": "pest or weed control at 35 g/ha", "setting": "[2]; [9]", "result": "0 to 29", "unit": "%"}, {"measurement": "pest or weed control at 70 g/ha", "setting": "[2]; [9]", "result": "0 to 29", "unit": "%"}, {"measurement": "pest or weed control at 140 g/ha", "setting": "[2]; [9]", "result": "0 to 29", "unit": "%"}, {"measurement": "pest or weed control at 35 g/ha", "setting": "[2]; [10]", "result": "0 to 29", "unit": "%"}, {"measurement": "pest or weed control at 70 g/ha", "setting": "[2]; [10]", "result": "0 to 29", "unit": "%"}, {"measurement": "pest or weed control at 140 g/ha", "setting": "[2]; [10]", "result": "60 to 74", "unit": "%"}, {"measurement": "pest or weed control at 35 g/ha", "setting": "[2]; [11]", "result": "0 to 29", "unit": "%"}, {"measurement": "pest or weed control at 70 g/ha", "setting": "[2]; [11]", "result": "0 to 29", "unit": "%"}, {"measurement": "pest or weed control at 140 g/ha", "setting": "[2]; [11]", "result": "45 to 59", "unit": "%"}, {"measurement": "pest or weed control at 35 g/ha", "setting": "[2]; [12]", "result": "0 to 29", "unit": "%"}, {"measurement": "pest or weed control at 70 g/ha", "setting": "[2]; [12]", "result": "0 to 29", "unit": "%"}, {"measurement": "pest or weed control at 140 g/ha", "setting": "[2]; [12]", "result": "0 to 29", "unit": "%"}, {"measurement": "pest or weed control at 35 g/ha", "setting": "[2]; [13]", "result": "0 to 29", "unit": "%"}, {"measurement": "pest or weed control at 70 g/ha", "setting": "[2]; [13]", "result": "0 to 29", "unit": "%"}, {"measurement": "pest or weed control at 140 g/ha", "setting": "[2]; [13]", "result": "0 to 29", "unit": "%"}, {"measurement": "pest or weed control at 35 g/ha", "setting": "[2]; [14]", "result": "0 to 29", "unit": "%"}, {"measurement": "pest or weed control at 70 g/ha", "setting": "[2]; [14]", "result": "0 to 29", "unit": "%"}, {"measurement": "pest or weed control at 140 g/ha", "setting": "[2]; [14]", "result": "0 to 29", "unit": "%"}]}]}
